Test results taken from patent US20140363889A1, “METHOD FOR PRODUCING MULTIPOLAR CELL” (TOAGOSEI CO., LTD., priority 2011, published 2014).

Assays:
Format in all cases: cell-based
[1] = test system: human alveolar basal epithelial adenocarcinoma cells, A549; assay: Multipolarity-inducing activity assay 3 (A549 cells synchronized in G2 phase (or M phase)); conditions: 10 μM peptide, number of M-phase cells 100
Method: Some of the sample peptides obtained in Example 1 were tested for multipolarity-inducing activity against target cultured tumor cells. As the tumor cells tested, cells forming a […] (human alveolar basal epithelial adenocarcinoma cells, A549) were used. The cell line was cultured in the same manner as Example 2 described above. The resulting cultured tumor cells were synchronized in the G2 phase (or M phase) in the same manner as Example 3 described above. Similarly to Examples 2 and 3 described above (the number of M-phase cells was 100 herein), the presence of multipolarity was observed by immunofluorescence under fluorescence microscope.

HeLa cell line (HeLa S3) [2] = assay: Multipolarity-inducing activity assay 1 (cells synchronized in G1 phase by double thymidine block); conditions: 10 μM peptide, 6 hours incubation; for Multipolar level (%): % multipolar cells relative to M-phase cells; for Number of multipolar cells: count among the M-phase cells observed
Method: Some of the sample peptides obtained in Example 1 were tested for multipolarity-inducing activity against target cultured tumor cells. Details of the assay are as described below.
As the tumor cells tested, a HeLa cell line (HeLa S3) was used. The cell line was cultured beforehand in a DMEM medium (i.e. Dulbecco MEM medium (DMEM medium, a Gibco product) containing 10% fetal bovine serum (FBS, a Gibco product), 2 mM of L-glutamine, 50 unit/mL of penicillin, and 50 μg/mL of streptomycin), and seeded at about 3×10^4 cells per well in an 8-well slide glass. Thymidine was added to the culture medium to a final concentration of 2.5 mM. Incubation was carried out at 37° C. under 5% CO2 for 16 hours. The culture medium was exchanged to remove thymidine and incubation was carried out for 8 more hours. Subsequently, thymidine was added again to a final concentration of 2.5 mM and incubation was carried out for 16 hours.
By such double thymidine block, the cells being cultured were synchronized in the G1 phase of the cell cycle. After such synchronization treatment, the culture medium was exchanged to remove thymidine and incubation was carried out for 2 more hours. Subsequently, one of the sample peptides was added to each well. In this example, one of Samples 1, 4, 5, 7, 9 and 11 was added to a peptide concentration in the well of 10 μM.
After a sample peptide was added as described above, the 8-well slid glass was incubated under the aforementioned conditions for 6 hours.
After 6 hours of incubation, the presence of multipolarity was observed by immunofluorescence under fluorescence microscope. In particular, after 6 hours of incubation following the addition of a sample peptide, the cultured cells were subjected to nuclear staining with DAPI (4′,6-diamidino-2-phenylindole), and using α-tubulin as a marker for spindles, the cells were tested for the presence of tubulin (i.e. the presence of spindles) by immunofluorescence with an anti-tubulin antibody (primary antibody) to identify the tubulin and a fluorescent dye (ALEXA FLUOR(registered trademark) 555)-labeled secondary antibody to identify the primary antibody. In addition, using centrin-2 as a marker for centrosomes (centrioles), the cells were tested for the presence of centrin-2 (i.e. the presence of centrosomes) by immunofluorescence with an anti-centrin-2 antibody (primary antibody) to identify the centrin-2 and a fluorescent dye-labeled secondary antibody to identify the primary antibody.

HeLa cell line (HeLa S3) [3] = assay: Multipolarity-inducing activity assay 2 (cells synchronized in G2 phase (or M phase) by nocodazole); conditions: 10 μM peptide, 4 hours with peptide + 2 hours without; for Multipolar level (%): % multipolar cells relative to M-phase cells; for Number of multipolar cells: count among 60 M-phase cells
Method: The same sample peptides as those used in Example 2 above were used and tested for multipolarity-inducing activity against cultured tumor cells synchronized in the G2 phase (or M phase). Details of the assay are as described below.
As the tumor cells tested, a HeLa cell line (HeLa S3) was used. The cell line was cultured under the same conditions as Example 2 and seeded at about 3×10^4 cells per well in an 8-well slide glass. Thymidine was added to the culture medium to a final concentration of 2.5 mM. Incubation was carried out at 37° C. under 5% CO2 for 18 hours. The culture medium was exchanged to remove thymidine and incubation was carried out for 6 more hours. Subsequently, nocodazole was added to a final concentration of 0.1 μg/mL and incubation was carried out for 16 hours. By such addition of nocodazole, the cells being cultured were synchronized in the G2 phase (M phase) of the cell cycle.
After the 16 hours of incubation, without exchanging the culture medium (i.e. with nocodazole being contained), one of the sample peptides was added to each well to a peptide concentration in the well of 10 μM and incubation was carried out for 4 hours. Subsequently, the culture medium was exchanged and incubation was continued for 2 more hours without nocodazole or the sample peptide.
After the 2 hours of incubation, in the same manner as Example 2, the presence of multipolarity was observed by immunofluorescence under fluorescence microscope.

| Sequence | Multipolar level (%) [1] [%] | Multipolar level (%) (HeLa cell line (HeLa S3) [2]) | Number of multipolar cells (HeLa cell line (HeLa S3) [2]) | Multipolar level (%) (HeLa cell line (HeLa S3) [3]) | Number of multipolar cells (HeLa cell line (HeLa S3) [3]) |
| --- | --- | --- | --- | --- | --- |
| NMTTYPMHNNTV [Sample 6] | 32 | – | – | – | – |
| GAVTYSRISGQY [Sample 10] | 29 | – | – | – | – |
| NMTTYPMHNNTVKKRTLRKNDRKKR [Sample 16] | 33 | – | – | – | – |
| GPHHYWYHLRLP [Sample 4] | 28 | 13.6 | 14 | 48.3 | 29 |
| TPSLPPTMFRLT [Sample 3] | 32 | – | – | – | – |
| EFEYFHPATFRL [Sample 8] | 26 | – | – | – | – |
| SLLPHSNHAKHY [Sample 7] | 28 | 13.0 | 13 | 43.3 | 26 |
| SVSVGMKPSPRPKKRTLRKNDRKKR [Sample 11] | 32 | 12.7 | 13 | 41.7 | 25 |
| GPHLGMNQRRRP [Sample 9] | 27 | 10.4 | 11 | 55.0 | 33 |
| SVSVGMKPSPRP [Sample 1] | 30 | 11.5 | 12 | 40.0 | 24 |
| QSPVNHHYHYHI [Sample 5] | 34 | 10.8 | 12 | 41.7 | 25 |
